From US20150335678A1, “METHOD OF ACTIVATING STEM CELLS IN AN ANIMAL AND THE USE OF CHLORINE DIOXIDE FOR PREPARING MEDICINES FOR ACTIVATING STEM CELLS IN AN ANIMAL” (priority 2012, published 2015)

What was measured:
[1] = system: androgenetic alopecia (hair-loss patients); assay: Androgenetic alopecia patients, solution smeared on alopecia area (Example 1); details: for increased ratio of hair density vs before administration, Region 1 (center of crown) / increased ratio of hair density vs before administration, Region 2 (middle of crown and forehead) / increased ratio of hair density vs before administration, Region 3 (on the forehead) / increased ratio of hair density vs before administration, Region 4 (both sides of forehead): 5.1 cm2 circle
Description: Drug preparation: The first solution was a mixed solution made of sodium chlorite with the concentration of 7.47% and sodium chloride with the concentration of 1.59% with deionized water; the second solution was made of citric acid with the concentration of 16.7% with deionized water.
Dosage and administration: Same volume of solutions were taken out from different vessels with different volumes and put into the suitable glass or plastic cups prepared. Allow the solution to mix for 3-5 minutes and then filter the solution with 0.22 μm filter membrane of double-deck. The alopecia area was smeared with the solution by swab, waiting for 1-2 hours before cleaning the head, once a day. The medicine was taken according to the course of treatment. The first course of treatment was 15-25 days, the second course of treatment began after 2-5 months of drug withdrawal. The administration days were 10-15 days from the second course of treatment, and the next course of treatment began after 2-5 months of drug withdrawal.
The subjects consisted of 42 male hair-loss patients and one patient (22-68 years old.) They were willing to use the drug (hereinafter referred to as administration). See Table 1 for specific information.
To select four circular regions (5.1 cm^2) with diameter of 2.54 cm in the following regions: the center of crown (in front of the whirl on the head, region 1), the middle of crown and forehead (region2), on the forehead (region 3), both sides of forehead (region 4), and calculate the amount of hair through digital photographs respectively on the 10th day (t1), the first month (t2), second month (t3) after administration of the first course of treatment, and the second month (t4) after administration of the second course of treatment, as well as the second month (t5) after administration of the third course of treatment. Then the increased ratios of hair density in different regions were worked out by comparing the amount of hair before administration. (See Table 2)

wound = details: clinical trial report No. NCT01341041, Rhode Island Hospital; cited from earlier work
alopecia areata = assay: Alopecia areata patients, topical solution with dimethyl sulfoxide (Example 4); assay type: in vivo, human
Description: The first solution was a mixed solution made of sodium chlorite with the concentration of 7.47% and sodium chloride with the concentration of 1.59% with deionized water; the second solution was made of citric acid with the concentration of 16.7% with deionized water.
Same volume of solutions were taken out from different vessels with different volumes and put into the suitable glass or plastic cups prepared. Allow the solution to mix for 3-5 minutes and then filter the solution with 0.22 μm filter membrane of double-deck, dimethyl sulfoxide was added in a ratio of 1:1, and then smear solution over the alopecia areata with the swab, waiting for 1-2 hours before cleaning the head, the drug was administered once a day according to the method. The first period lasted for 15-25 days, then the drug was stopped for 2-5 months; The second period lasted for 15-25 days in the light of the situation.
The subjects consisted of 11 male alopecia areata patients and a patient (the patients are between 22-40 years old.) They administered the activating agent of stem cell as volunteers, see Table 12.

[2] = system: hip arthritis (osteoarthritis); assay: Hip arthritis patients: VAS pain intensity, WOMAC, tolerance (Example 5); assay type: in vivo, human; details: 11 hip arthritis patients; for WOMAC mean (±SD): beginning 55.03 (±26.63); for Doctor VAS pain intensity, mean (±SD), 0-100: beginning 55.23 (±9.66); for Patients VAS pain intensity, mean (±SD), 0-100: beginning 58.32 (±8.25)
Description: To smear the solution over the skin of hip arthritis with swab immediately, once a day for consecutive 20 days. Then stop the administration for three months, and then began continuous treatment for 20 days. Clean and disinfect the regions before treatment, conduct local anesthetic 30 minutes before the operation.
The subjects who joined in the treatment group as volunteers consisted of 11 patients with hip arthritis (5 male, aged from 40 to 70 years old and 6 female, aged from 40 to 65 years old.). Case histories were recorded at the third and the sixth month by collecting personal and data of human body (height, body weight, BMI, blood pressure and heart rate.) Then evaluate the following parameters:
Pain intensity: VAS was used, ranging from 0 (normal) to 100 (maximum intensity), it was conducted by the doctor and patient:
Seriousness of the illness: Womac, namely, self-assessment of hip arthritis that consists of 24 items was used to detect the development and effect of the treatment.

[3] = system: APTT, PT and TT (blood coagulation and fibrinolysis systems); assay: Side effects in lower limb DVT patients: APTT, PT, TT and pain
Description: Chlorine dioxide solution was administered to the patients through the contralateral femoral artery puncture (sick side) for 14 consecutive days, a dose of 10 ml/body/day. Before injection, use 2 ml-5 ml lidocaine of 2% to perform infiltration anesthesia at puncture point.

[4] = 2-6 days after administration, n=43, NaClO2 7.47% + citric acid 16.7% 1:1, topical once a day
[5] = 3-5 days after administration, n=43, NaClO2 7.47%/NaCl 1.59% + citric acid 16.7% mixed 1:1, smeared on alopecia area once a day
[6] = 15-25 days after administration, n=43, NaClO2 7.47% + citric acid 16.7% 1:1, topical once a day
[7] = T1: 10th day, first course, n=43, NaClO2 7.47% + citric acid 16.7% topical
[8] = T2: first month after administration of first course, n=43, NaClO2 7.47% + citric acid 16.7% topical
[9] = T3: second month after administration of first course, n=43, NaClO2 7.47% + citric acid 16.7% topical
[10] = T4: second month after administration of second course, n=43, NaClO2 7.47% + citric acid 16.7% topical
[11] = T5: second month after administration of third course, n=43, NaClO2 7.47% + citric acid 16.7% topical
[12] = inventor's observation, chlorine dioxide solution applied every day
[13] = medicine stopped for 2-5 months after a course of treatment, n=43, NaClO2 7.47% + citric acid 16.7% 1:1, topical once a day

## [O][Cl+][O-] [chlorine dioxide solution, chlorine dioxide]
[1]; [4]
  Effective rate: hair in the affected area fell off quickly: 100%
  No. effective patients: hair in the affected area fell off quickly: 43
[1]; [5]
  Effective rate: beard like new hair regrew, seen by naked eyes: 98%
  No. effective patients: beard like new hair regrew, seen by naked eyes: 42
[1]; [6]
  Effective rate: new hair grew persistently: 93%
  No. effective patients: new hair grew persistently: 40
[1]; T1: 10th day, first course, digital photographs, n=43, NaClO2 7.47% + citric acid 16.7% topical once a day
  increased ratio of hair density vs before administration, Region 1 (center of crown): 123%
[1]; [7]
  increased ratio of hair density vs before administration, Region 2 (middle of crown and forehead): 117%
  increased ratio of hair density vs before administration, Region 3 (on the forehead): 133%
  increased ratio of hair density vs before administration, Region 4 (both sides of forehead): 102%
[1]; [8]
  increased ratio of hair density vs before administration, Region 1 (center of crown): 137%
  increased ratio of hair density vs before administration, Region 2 (middle of crown and forehead): 129%
  increased ratio of hair density vs before administration, Region 3 (on the forehead): 134%
  increased ratio of hair density vs before administration, Region 4 (both sides of forehead): 157%
[1]; [9]
  increased ratio of hair density vs before administration, Region 1 (center of crown): 154%
  increased ratio of hair density vs before administration, Region 2 (middle of crown and forehead): 142%
  increased ratio of hair density vs before administration, Region 3 (on the forehead): 153%
  increased ratio of hair density vs before administration, Region 4 (both sides of forehead): 163%
[1]; [10]
  increased ratio of hair density vs before administration, Region 1 (center of crown): 196%
  increased ratio of hair density vs before administration, Region 2 (middle of crown and forehead): 185%
  increased ratio of hair density vs before administration, Region 3 (on the forehead): 201%
  increased ratio of hair density vs before administration, Region 4 (both sides of forehead): 260%
[1]; [11]
  increased ratio of hair density vs before administration, Region 1 (center of crown): 354%
  increased ratio of hair density vs before administration, Region 2 (middle of crown and forehead): 402%
  increased ratio of hair density vs before administration, Region 3 (on the forehead): 396%
  increased ratio of hair density vs before administration, Region 4 (both sides of forehead): 433%
[1]; after administration, topical once a day
  time until new hair could grow, most of patients: 2 to 3 days
[1]; human, in vivo
  duration of stabbing pain after application: 15 to 30 min
[1]; [12]
  time until new hair grows in alopecia area with hair: third to the fifth day
  time until new hair grows in alopecia area without hair: about 20 days
[1]; [13]
  Effective rate: hair recovered by one level, judged by naked eyes: 81%
  No. effective patients: hair recovered by one level, judged by naked eyes: 35
[1]; when administered for three days, red spot like solidified bleeding wound
  skin reaction in the administered area: micro wound was produced
wound
  effects compared with normal saline in wound irrigation: promote healing and reduce scar formation
Alopecia areata; course of disease more than 12 months, 7 patients
  time until new hair equably grew, second period of administration: equably grow 3-5 days.
Alopecia areata; course of disease more than 12 months, 7 patients, NaClO2 7.47% + citric acid 16.7% 1:1, DMSO 1:1, smeared once a day
  time until new hair grew along the alopecia areata area, first period of administration: 3-5 days after
Alopecia areata; course of disease within 12 months, 5 patients
  time until new hair grew, second period of administration: 3-5 days after
Alopecia areata; course of disease within 12 months, 5 patients, NaClO2 7.47% + citric acid 16.7% 1:1, DMSO 1:1, smeared once a day 15-25 days
  time until new hair grew, first period of administration: 3-5 days after
Alopecia areata; course of disease within 12 months, 5 patients, second period 15-25 days after 2-5 months off
  hair fell off, second period of administration: About 50% of hair fell
[2]; topical with DMSO
  time until pain and itch during administration disappeared completely: about an hour
  tolerance: without local or systemic anaphylactic reaction
[2]; sixth month, topical with DMSO
  WOMAC mean (±SD): 6.54 (±5.86)
  Doctor VAS pain intensity, mean (±SD), 0-100: 7.11 (±6.93)
  Patients VAS pain intensity, mean (±SD), 0-100: 6.32 (±6.53)
[2]; third month, topical with DMSO
  WOMAC mean (±SD): 20.11 (±22.53)
  Doctor VAS pain intensity, mean (±SD), 0-100: 20.03 (±7.32)
[2]; third month, NaClO2 8%/NaCl 2% + citric acid 15% 1:1, DMSO 1:1, smeared once a day 20 days, three months off, 20 days
  Patients VAS pain intensity, mean (±SD), 0-100: 18.24 (±7.25)
[3]; almost all the patients, day one after administration
  duration of stabbing pain after injection without anesthetic: 30 min
[3]; before, day 7 and day 14 after administration, lower limb DVT patients, 10 ml/body/day femoral artery puncture
  APTT, PT and TT, before vs after administration: no significant differences
[3]; lower limb DVT patients, 10 ml/body/day femoral artery puncture, 14 days
  side effects by administration: no occurrence of side effects
